The test system of assay [1] is HCT-116 (human colon) cells. Description: Cell-Titer Glo Cell Growth Inhibition Assay. The note with it: HCT-116 cells, 72 h incubation, CellTiter-Glo, read-out: HCT116 IC50. Format: cell-based. As to the method:
A549-L (human lung), Colo 205 (human colon), HCT-116 (human colon), HT29 (human colon), MX-1 (human breast), SKOV3 (human ovary) and P388 (murine leukemia) cell lines were cultured in RPM11640 containing 10% fetal bovine serum at 37° C. in a 5% CO2 incubator. Cell lines were split into T75 flasks (Falcon #353136) two to three days prior to assay set up at density which yields approximately 70-80% confluency at time of harvest for assay. Cells were harvested using 0.25% trypsin with EDTA (Glibco/Invitrogen #25200-056), Cell counts were performed on cell suspensions using Trypan Blue exclusion staining, cells were then plated in 105 µL of culture media per well at the following densities in 96 well Costar #3916 black flat bottom plates: A549-L 500 cells/well, Colo205 500 cells/well, HCT-116 500 cells/well, HT29 500 cells/well, MX-1 500 cells/well, SKOV3 500 cells/well and P388 250 cells/well. All plates were placed at 5% CO2 37° C. overnight and then test compounds were added the following day. One plate of each cell type was treated with CellTiter-Glo (Promega #G7573) for a day 0 proliferation measurement and read as described below. The test compounds were prepared in clear U bottom polypropylene 96 well plates (Falcon #35-1190 with consecutive two fold dilutions. 9 uL of these dilutions was added into each well of the cell plates. The final concentration of DMSO in all wells was 0.15%. Cells were incubated at 37° C., 5% CO2 for 72 h. Following 72 h of incubation with compounds each plate was developed and read. CellTiter-Glo reagent was added to assay plates using a volume equivalent to the cell culture volume in the wells. Plates were shaken for approximately 2 min and incubated at rt for approximately 15 min and the chemiluminescent signal was read on the Victor V or Envison 2100 reader. […] Concentration of compound that inhibited 50% of cell growth (IC50) was analyzed by 4 or 6 parameter fit of data using XLfit, value of no cell addition was substracted from all samples for background.
On the technique in general: ATP-based viability assays read luminescence as a measure of living cells.

The target of assay [2] is T1, PLK1 kinase domain (Homo sapiens, UniProt P53350).
T1 construct: made in house; host or cells: baculovirus infected T. ni cells
In words: Assay for Inhibition of PLK1 (SPA, 33P-ATP). Format: biochemical. The note with it: 2 nM PLK1 kinase domain, 1 μM ATP, 22° C.; read-out: PLK1 pIC50 (converted). As to the method: A. Preparation of 6× N-Terminal His-Tagged PLK Kinase Domain
All procedures were performed at 4° C. Cells were lysed in 50 mM HEPES, 200 mM NaCl, 50 mM imidazole, 5% glycerol; pH 7.5. The homogenate was centrifuged at 14K rpm in a SLA-1500 rotor for 1 hr and the supernatant filtered through a 1.2 micron filter. The supernatant was loaded onto a Nickel chelating Sepharose (Amersham Pharmacia) column and washed with lysis buffer. Protein was eluted using 20%, 30% and 100% buffer B steps where buffer B was 50 mM HEPES, 200 mM NaCl, 300 mM imidazole, 5% glycerol; pH 7.5. Fractions containing PLK were determined by SDS-PAGE. Fractions containing PLK were diluted five-fold with 50 mM HEPES, 1 mM DTT, 5% glycerol; pH 7.5, then loaded on an SP Sepharose (Amersham Pharmacia) column. After washing the column with 50 mM HEPES, 1 mM DTT, 5% glycerol; pH 7.5, PLK was step eluted with 50 mM HEPES, 1 mM DTT, 500 mM NaCl; 5% glycerol; pH 7.5. PLK was concentrated using a 10 kDa molecular weight cutoff membrane and then loaded onto a Superdex 200 gel filtration (Amersham Pharmacia) column equilibrated in 25 mM HEPES, 1 mM DTT, 500 mM NaCl, 5% glycerol; pH 7.5. Fractions containing PLK were determined by SDS-PAGE. PLK was pooled, aliquoted and stored at −80° C. Samples were quality controlled using mass spectrometry, N-terminal sequencing and amino acid analysis.
B. Enzyme Activity +/− Inhibitors was Determined as Follows:
All measurements were obtained under conditions where signal production increased linearly with time and enzyme. Test compounds were added to white 384-well assay plates (0.1 μL for 10 μL and some 20 μL assays, 1 μL for some 20 μL assays) at variable known concentrations in 100% DMSO. DMSO (1-5% final, as appropriate) and EDTA (65 mM in reaction) were used as controls.
Reaction Mix (10 or 20 μL) was quickly added to each well immediately following addition of enzyme via automated liquid handlers and incubated 1-1.5 h at 22° C. The 20 μL enzymatic reactions were stopped with 50 μL of stop mix (50 mM EDTA, 4.0 mg/mL Streptavidin SPA beads in Standard Dulbecco's PBS (without Mg^2+ and Ca^2+), 50 μM ATP) per well. The 10 μL reactions were stopped with 10 μL of stop mix (50 mM EDTA, 3.0 mg/mL Streptavidin-coupled SPA Imaging Beads (“LeadSeeker”) in Standard Dulbecco's PBS (without Mg^2+ and Ca^2+), 50 μM ATP) per well. Plates were sealed with clear plastic seals, spun at 500×g for 1 min or settled overnight, and counted in Packard TopCount for 30 seconds/well (regular SPA) or imaged using a Viewlux imager (LeadSeeker SPA). Signal above background (EDTA controls) was converted to percent inhibition relative to that obtained in control (DMSO-only) wells.

The record followed here is US20100056525A1, “5- AND 6- SUBSTITUTED BENZIMIDAZOLE THIOPHENE COMPOUNDS” (priority 2006, published 2010).

Bounds are passed on as bounds.

T1 sequence (P53350 21-346): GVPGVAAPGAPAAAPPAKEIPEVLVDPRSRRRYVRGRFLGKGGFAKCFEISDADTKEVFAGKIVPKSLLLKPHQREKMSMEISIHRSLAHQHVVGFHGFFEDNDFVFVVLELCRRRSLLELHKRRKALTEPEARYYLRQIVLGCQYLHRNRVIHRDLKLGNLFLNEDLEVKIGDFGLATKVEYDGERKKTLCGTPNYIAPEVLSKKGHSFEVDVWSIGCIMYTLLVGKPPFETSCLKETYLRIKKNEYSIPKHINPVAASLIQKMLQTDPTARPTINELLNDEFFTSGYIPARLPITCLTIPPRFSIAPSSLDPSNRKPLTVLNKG

In the case of `C[C@@H](Oc1cc(-n2cnc3cc(-c4ccnc(NCCN(C)C)c4)ccc32)sc1C(N)=O)c1ccccc1C(F)(F)F` [Example 1, 5-[5-(2-{[2-(Dimethylamino)ethyl]amino}-4-pyridinyl)-1H-benzimidazol-1-yl]-3-({(1R)-1-[2-(trifluoromethyl)phenyl]ethyl}oxy)-2-thiophenecarboxamide], the IC50 in assay [1] is less than 500 nM.

Turning to `CNCCNc1cc(-c2ccc3c(c2)ncn3-c2cc(O[C@H](C)c3ccccc3C(F)(F)F)c(C(N)=O)s2)ccn1` [Example 2, 5-[5-(2-{[2-(Methylamino)ethyl]amino}-4-pyridinyl)-1H-benzimidazol-1-yl]-3-({(1R)-1-[2-(trifluoromethyl)phenyl]ethyl}oxy)-2-thiophenecarboxamide], the IC50 was less than 100 nM in assay [2] and less than 500 nM in assay [1].

As to `C[C@@H](Oc1cc(-n2cnc3cc(-c4ccnc(NC(=O)CN(C)C)c4)ccc32)sc1C(N)=O)c1ccccc1C(F)(F)F` [Example 3, 5-(5-{2-[(N,N-dimethylglycyl)amino]-4-pyridinyl}-1H-benzimidazol-1-yl)-3-({(1R)-1-[2-(trifluoromethyl)phenyl]ethyl}oxy)-2-thiophenecarboxamide], the IC50 was less than 100 nM in assay [2] and less than 500 nM in assay [1].

Take `C[C@@H](Oc1cc(-n2cnc3cc(-c4ccnc(NC(=O)CN)c4)ccc32)sc1C(N)=O)c1ccccc1C(F)(F)F` [Example 4, 5-{5-[2-(Glycylamino)-4-pyridinyl]-1H-benzimidazol-1-yl}-3-({(1R)-1-[2-(trifluoromethyl)phenyl]ethyl}oxy)-2-thiophenecarboxamide]: the IC50 in assay [2] is less than 100 nM; in assay [1], less than 500 nM.

Turning to `C[C@@H](Oc1cc(-n2cnc3cc(-c4ccnc(NCCCN(C)C)c4)ccc32)sc1C(N)=O)c1ccccc1C(F)(F)F` [Example 5, 5-[5-(2-{[3-(Dimethylamino)propyl]amino}-4-pyridinyl)-1H-benzimidazol-1-yl]-3-([(1R)-1-[2-(trifluoromethyl)phenyl]ethyl]oxy)-2-thiophenecarboxamide], the figures for the IC50 in assay [2] and in assay [1] were less than 100 nM and less than 500 nM, respectively.

With `C[C@@H](Oc1cc(-n2cnc3cc(-c4ccnc(NCCN)c4)ccc32)sc1C(N)=O)c1ccccc1C(F)(F)F` [Example 6, 5-(5-{2-[(2-Aminoethyl)amino]-4-pyridinyl}-1H-benzimidazol-1-yl)-3-([(1R)-1-[2-(trifluoromethyl)phenyl]ethyl]oxy)-2-thiophenecarboxamide], the IC50 in assay [2] is less than 100 nM; in assay [1], less than 500 nM.

As to `C[C@@H](Oc1cc(-n2cnc3cc(-c4ccnc(N(C)CCN(C)C)c4)ccc32)sc1C(N)=O)c1ccccc1C(F)(F)F` [Example 7, 5-(5-{2-[[2-(Dimethylamino)ethyl](methyl)amino]-4-pyridinyl}-1H-benzimidazol-1-yl)-3-({(1R)-1-[2-(trifluoromethyl)phenyl]ethyl}oxy)-2-thiophenecarboxamide], the IC50 in assay [2] is less than 100 nM; in assay [1], less than 500 nM.

`C[C@@H](Oc1cc(-n2cnc3cc(-c4ccnc(N(C)CCCN(C)C)c4)ccc32)sc1C(N)=O)c1ccccc1C(F)(F)F` [Example 8, 5-(5-{2-[[3-(Dimethylamino)propyl](methyl)amino]-4-pyridinyl}-1H-benzimidazol-1-yl)-3-({(1R)-1-[2-(trifluoromethyl)phenyl]ethyl}oxy)-2-thiophenecarboxamide]: the values for the IC50 in assay [2] and in assay [1] were less than 100 nM and less than 500 nM, respectively.

On to `C[C@@H](Oc1cc(-n2cnc3cc(-c4ccnc(NCCCN5CCN(C)CC5)c4)ccc32)sc1C(N)=O)c1ccccc1C(F)(F)F` [Example 9, 5-[5-(2-{[3-(4-Methyl-1-piperazinyl)propyl]amino}-4-pyridinyl)-1H-benzimidazol-1-yl]-3-({(1R)-1-[2-(trifluoromethyl)phenyl]ethyl}oxy)-2-thiophenecarboxamide], for which the IC50 in assay [2] was less than 100 nM; in assay [1] it was less than 500 nM.

On to `C[C@@H](Oc1cc(-n2cnc3cc(-c4ccnc(NCCN(C)C)c4)ccc32)sc1C(N)=O)c1ccccc1Cl` [Example 10, 3-{[(1R)-1-(2-chlorophenyl)ethyl]oxy}-5-[5-(2-{[2-(dimethylamino)ethyl]amino}-4-pyridinyl)-1H-benzimidazol-1-yl]-2-thiophenecarboxamide], for which the figures for the IC50 in assay [2] and in assay [1] were less than 100 nM and less than 500 nM, respectively.

With `C[C@@H](Oc1cc(-n2cnc3cc(-c4ccnc(NCCCN5CCN(C)CC5)c4)ccc32)sc1C(N)=O)c1ccccc1Cl` [Example 11, 3-{[(1R)-1-(2-chlorophenyl)ethyl]oxy}-5-[5-(2-{[3-(4-methyl-1-piperazinyl)propyl]amino}-4-pyridinyl)-1H-benzimidazol-1-yl]-2-thiophenecarboxamide], the IC50 in assay [2] was less than 100 nM; in assay [1], less than 500 nM.

Turning to `C[C@@H](Oc1cc(-n2cnc3cc(-c4ccnc(NCCN5CCOCC5)c4)ccc32)sc1C(N)=O)c1ccccc1Cl` [Example 12, 3-{[(1R)-1-(2-chlorophenyl)ethyl]oxy}-5-[5-(2-{[2-(4-morpholinyl)ethyl]amino}-4-pyridinyl)-1H-benzimidazol-1-yl]-2-thiophenecarboxamide], the IC50 was less than 100 nM in assay [2] and less than 500 nM in assay [1].

In the case of `C[C@@H](Oc1cc(-n2cnc3cc(-c4ccnc(NC[C@@H](O)CO)c4)ccc32)sc1C(N)=O)c1ccccc1Cl` [Example 13, 3-{[(1R)-1-(2-chlorophenyl)ethyl]oxy}-5-[5-(2-{[(2R)-2,3-dihydroxypropyl]amino}-4-pyridinyl)-1H-benzimidazol-1-yl]-2-thiophenecarboxamide], the IC50 is less than 100 nM in assay [2] and less than 500 nM in assay [1].

`C[C@@H](Oc1cc(-n2cnc3cc(-c4ccnc(NCCO)c4)ccc32)sc1C(N)=O)c1ccccc1Cl` [Example 14, 3-{[(1R)-1-(2-chlorophenyl)ethyl]oxy}-5-(5-{2-[(2-hydroxyethyl)amino]-4-pyridinyl}-1H-benzimidazol-1-yl)-2-thiophenecarboxamide]: the IC50 in assay [1] is less than 500 nM.

As for `CC(C)[C@H](N)C(=O)OCCNc1cc(-c2ccc3c(c2)ncn3-c2cc(O[C@H](C)c3ccccc3Cl)c(C(N)=O)s2)ccn1` [Example 15, 2-({4-[1-(5-(Aminocarbonyl)-4-{[(1R)-1-(2-chlorophenyl)ethyl]oxy}-2-thienyl)-1H-benzimidazol-5-yl]-2-pyridinyl}amino)ethyl L-valinate], the IC50 in assay [2] is less than 100 nM; in assay [1], less than 500 nM.
